Molecular target: T1, DHR23α (Drosophila melanogaster, UniProt P34021)
T1 construct: To isolate the full-length DHR23α clones; expressed in transfected cells; host or cells: human 293 cells
T1 sequence (P34021 1-878): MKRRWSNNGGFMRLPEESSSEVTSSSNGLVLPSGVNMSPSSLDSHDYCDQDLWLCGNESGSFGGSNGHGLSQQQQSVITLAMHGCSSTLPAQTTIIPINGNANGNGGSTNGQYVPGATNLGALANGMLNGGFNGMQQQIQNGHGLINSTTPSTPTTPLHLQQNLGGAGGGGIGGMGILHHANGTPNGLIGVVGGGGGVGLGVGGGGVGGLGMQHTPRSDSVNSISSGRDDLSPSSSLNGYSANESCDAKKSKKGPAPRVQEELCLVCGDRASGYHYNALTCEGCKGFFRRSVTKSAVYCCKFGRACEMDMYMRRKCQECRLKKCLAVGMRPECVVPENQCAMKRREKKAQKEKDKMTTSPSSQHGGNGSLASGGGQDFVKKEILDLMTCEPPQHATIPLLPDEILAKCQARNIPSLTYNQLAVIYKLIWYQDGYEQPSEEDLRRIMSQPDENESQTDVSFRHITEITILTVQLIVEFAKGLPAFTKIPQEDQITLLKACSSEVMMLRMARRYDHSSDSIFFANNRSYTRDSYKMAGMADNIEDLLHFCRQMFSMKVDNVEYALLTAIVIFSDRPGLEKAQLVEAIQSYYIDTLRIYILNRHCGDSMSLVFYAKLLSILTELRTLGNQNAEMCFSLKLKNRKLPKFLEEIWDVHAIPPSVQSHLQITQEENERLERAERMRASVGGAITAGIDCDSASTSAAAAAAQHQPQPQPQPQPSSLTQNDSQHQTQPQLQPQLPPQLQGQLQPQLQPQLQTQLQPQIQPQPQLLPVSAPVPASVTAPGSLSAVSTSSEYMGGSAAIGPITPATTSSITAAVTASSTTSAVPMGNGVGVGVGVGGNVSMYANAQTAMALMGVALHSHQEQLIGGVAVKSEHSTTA
T1 sequence (P19793 1-462 partner): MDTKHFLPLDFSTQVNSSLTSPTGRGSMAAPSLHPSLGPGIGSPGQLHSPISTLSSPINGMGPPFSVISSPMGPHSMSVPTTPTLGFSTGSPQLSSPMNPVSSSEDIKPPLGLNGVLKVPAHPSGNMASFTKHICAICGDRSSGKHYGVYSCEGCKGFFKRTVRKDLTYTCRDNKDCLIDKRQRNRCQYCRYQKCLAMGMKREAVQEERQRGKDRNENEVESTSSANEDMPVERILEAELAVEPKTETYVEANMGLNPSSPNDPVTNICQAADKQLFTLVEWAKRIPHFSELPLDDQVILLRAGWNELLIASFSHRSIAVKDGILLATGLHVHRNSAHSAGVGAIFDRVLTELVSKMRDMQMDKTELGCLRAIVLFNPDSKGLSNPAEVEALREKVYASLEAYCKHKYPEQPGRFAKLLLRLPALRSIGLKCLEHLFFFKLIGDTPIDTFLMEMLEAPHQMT
Test: DHR23α transactivation of EcRE (Ec4M-77CO) CAT reporter in transfected human 293 cells
Format: cell-based
Settings: pRSV.DHR23α + pEc4M-77CO (EcRE) CAT reporter, ligand 1 µM, 48 hrs
Protocol: Figure. 2. […] Human 293 cells were cotransfected with 2.5 µg of the expression plasmid pRSV.DHR23α or the parental expression plasmid pRSV (Control) and 0.5 µgs of the reporter plasmid pEc4M-77CO (EcRE) or pG4M-77CO (GRE). As a control for transfection efficiency, 0.5 µgs of the control plasmid pRSV.hGH was included in the transfection mixture. After transfection, cells were treated without (-) or with alpha-ecdysone (alpha), 20-OH ecdysone (20-OH), polypodine B (ppB), ponasterone A (ponA) or muristeroine A (murA). CAT extracts were harvested 48 hrs after transfection and assayed. The values were normalized to the expression of hGH and the average values of three independent experiments are shown. The "fold induction" represents the level of expression of the reporter gene in cells incubated with hormone divided by the expression of that reporter gene in extracts from cells incubated in the absence of added ligand.
I determined whether DHR23α could function in mammalian cells treated with ecdysteroids to enhance the transcription of a reporter gene containing EcREs linked to the murine mammary tumor virus (MTV) promoter and chloramphenicol acetyltransferase (CAT) gene. Human 293 cells were cotransfected with an RSV-based expression vector that encodes DHR23a and the reporter gene Ec4M-77CO that contains 4 copies of an ecdysone response element (EcRE) from the Drosophila HSP27 promoter (G. Riddihough and H. R. B. Pelham, EMBO J. 6, 3729 [1987]) linked to an MTV promoter-CAT construct.
Human 293 cells were cotransfected with 2.5 µg of the expression plasmid pRSV.DHR23α or the parental expression plasmid pRSV (Control) and 0.5 µgs of the reporter plasmid pEc4M-77CO (EcRE) or pG4M-77CO (GRE). As a control for transfection efficiency, 0.5 µgs of the control plasmid pRSV.hGH was included in the transfection mixture. After transfection, cells were treated without (-) or with alpha-ecdysone (alpha), 20-OH ecdysone (20-OH), polypodine B (ppB), ponasterone A (ponA) or muristeroine A (murA). All candidate ligands were added at a concentration of 1 µM. CAT extracts were harvested 48 hrs after transfection, and assays were performed as described (D. R. Cavener, Nucl. Acids Res. 15, 1353-1361 [1987]). The values were normalized to the expression of hGH and the average values of three independent experiments are shown in Figure 2. The "fold induction" represents the level of expression of the reporter gene in cells incubated with hormone divided by the expression of that reporter gene in extracts from cells incubated in the absence of added ligand.
Cells were transfected with the DHR23α expression vector and Ec4M-77CO reporter gene and treated without (-) or with the following hormones (1 µM): muristerone A (mur A) dexamethasone (Dex) 17β-estradiol (E2), aldosterone (Aldo), corticosterone (Cort) hydroxycorticosterone (OH-Cort) thyroid hormone (T3), promegestone (Promeg) or 1,25-dihydroxy vitamin D3 (VD3). Reporter gene activity was determined as described above for Figure 2.

Q: What does the source list for `CC(C)CCC(O)[C@](C)(O)[C@H]1CC[C@@]2(O)C3=CC(=O)C4(O)CC(O)C(O)C[C@]4(C)[C@H]3C(O)C[C@]12C` (some centres unmarked) [muristerone A, 2,3,5,11,14,20,22-Heptahydroxy-7-cholesten-6-one]?
A: agonist for DHR23α in mammalian cells (expression of the reporter gene): markedly increased; agonist for DHR23α in mammalian cells (expression of the reporter gene) (listed as muristerone): strong agonist
